Results: publication PMC6030159 (Scientific Reports, 2018)
Entries after “also recorded” stand apart in the source; their conditions may differ.

Key:
endogenous MYC protein = assay: Western blot of endogenous MYC in HeLa cells; assay type: cell-based; conditions: 10 μM, 24 hours
Description: (§1) These assays were performed essentially as described in[67],[68]. For further information on immunohistochemistry, and on primers and antibodies, see Supplementary Information.

[1] = system: MYC-driven transcription (ODC1, RSG16, CR2); assay: RT-qPCR of MYC target genes in U2OS-MYC-ER cells; assay type: cell-based; conditions: 10 μM, 24 hours
Description: To investigate the effect of the compounds on MYC-driven transcription, we utilized U2OS cells expressing a MYC-estrogen receptor (MYC-ER) fusion protein, the activity of which is regulated by the ligand 4-hydroxytamoxifen (HOT)[43].
as §1

FRA1:JUN = system: T1, FRA1:JUN; assay: isPLA endogenous FRA1:JUN; assay type: cell-based, human; conditions: 10 μM
T1 construct: endogenous in cells
Description: The isPLA assay has been described. Antibodies used are listed in Supplementary Information. Briefly, cells were grown on collagen-coated chamber slides (Falcon), and treated with 1–10 μM of compounds, respectively, for 16 hours, then washed twice with PBS and fixed in ice cold methanol for 5–15 min at room temperature. Slides were washed in PBS with 0.05% Tween 20 and incubated in blocking buffer after which isPLA was performed using the Duolink® in situ PLA kit (Sigma-Aldrich) according to the manufacturer’s protocol. DNA was stained with DAPI. Incubation with primary antibodies were performed at +4 °C overnight. Images were taken using an Axiovert 200M inverted microscope (Zeiss) and fluorescent dots were quantified using semi-automated analysis in ImageJ (http://imagej.net) and averaged to number of dots per cell.

MYCbHLHZip:MAXbHLHZip = target: T2, MYCbHLHZip:MAXbHLHZip (Homo sapiens, UniProt P01106); assay: MST MYC:MAX heterodimer formation assay; assay type: binding; conditions: for shift of MAX thermophoresis relative to DMSO (MYC:MAX MST): 50 µM compound, 1 µM MYCbHLHZip
T2 construct: 6xHis (N); made in house; host or cells: E. coli BL21 (DE3), pET28a
T2 sequence (P01106 367-447 limits assumed): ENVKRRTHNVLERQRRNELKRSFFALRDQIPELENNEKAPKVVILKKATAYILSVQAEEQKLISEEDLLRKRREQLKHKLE
Text: We next investigated the capacity of the small molecule inhibitors to directly target the MYC:MAX interaction in vitro. Two biophysical interaction assays, microscale thermophoresis (MST)[44] and surface plasmon resonance (SPR)[45], were developed using recombinant MYC and MAX proteins (Suppl. Fig. S1C) (manuscript in prep.). MST is based on the shift of fluorescent molecules moving in a temperature gradient (thermophoresis), which can be perturbed by interactions. In the MST MYC:MAX interaction assay, fluorescently labeled MAXbHLHZip was combined with MYCbHLHZip pre-mixed with compound.
MST was carried out on a Monolith NT.115 with blue/green filters, kindly provided by Luca Jovine, Karolinska Institutet Huddinge, according to manufacturer’s protocol (NanoTemper). MYCbHLHZip, MAXbHLHZip, BSA and BCL-XL recombinant proteins and compounds were diluted and titrated in PBS supplemented with 0.05% Triton-X-114 or 0.05% Tween-20. Titration of molecules was carried out in 16 PCR tubes into which a fixed concentration of fluorescent molecule was added. The mixture was applied to capillaries (standard treated, NanoTemper), and scanned in the Monolith NT.115 to measure initial fluorescence of molecule. MST was induced and fluorescence was measured during 40 seconds. Double measurements were carried out (MST power of 20% and 40%, or 40% and 60%) for each sample. Delta fluorescence or relative fluorescence of fluorescent molecule normalized to control vehicle was plotted against titrated molecule concentration. The protein labeling kit GREEN-NHS (NanoTemper) was used to label primary amines of proteins according to manufacture’s protocol.

MAX:MXD1(MAD1) = system: T3, MAX:MXD1(MAD1); assay: GLuc MAD:MAX in COS-7 cells; assay type: cell-based; conditions: 12.5 µM
T3 construct: full-length MXD1(MAD1) or full-length MAX cDNA; expressed in transfected cells; host or cells: COS-7
Description: The protein fragment complementation assay using the Gaussia luciferase has been described. 0.2–0.4 μg of each GLuc-construct (see Supplementary Information) together with 0.05–0.2 μg pCMV-Luc (Firefly luciferase) were transiently transfected into HEK293 or COS-7 cells in 6-well plates. 24 hours later cells were treated with compound (10–25 μM) or DMSO. After another 17 hours, the cells were harvested and lyzed in passive lysis buffer (Promega) supplemented with complete protease inhibitor (Roche). After 60 min incubation at room temperature 20 μM D-luciferin was added (substrate of Firefly luciferase) and luminescence was measured in a Lumat LB9501 (Berthold) or OmegaFluostar (BMG Labtech) luminometer. Directly after, Gaussia luciferase substrate Coelenterazine (Promega) was added to a final concentration of 20 μM in a mixture with “Stop n’ Glow” (Promega) and the luciferase activity was measured. The ratio between Gaussia and Firefly luciferase values were calculated and normalized to DMSO-treated control cells.
Supplementary Figure Legends
Supplemental Figure S1. Schematic presentations of MYC and MAX protein constructs. A) BiFC constructs MYC-YFP-N and MAX-YFP-C, containing full-length MYC and MAX fused with N-terminal and C-terminal fragments of yellow fluorescent protein (YFP), respectively 3.
In the MYC deletion mutant MYCΔbHLHZip-YFP-N, the bHLHZip domain, residues 352-432, has been truncated 3. B) Gaussia princeps Luciferase (GLuc) constructs MYC-GLuc-C and MAX-GLuc-N, containing full-length MYC and MAX fused with N-terminal and C-terminal fragments of GLuc, respectively. MYC was truncated at residue 411-432 in order to produce the deletion mutant MYCΔZ ip-GLuc-C. […]
Supplemental Figure S2. […] The cells were reseeded and treated with vehicle or 25 µM of each compound, after which fluorescence was measured 24 hours post-treatment and the YFP/CFP ratio calculated and normalized to DMSO-treated cells.
B) MAD:MAX GLuc assay. MAD-GLuc-C and MAX-GLuc-N constructs were cotransfected into COS-7 cells together with CMV-Luc and treated with MYCMIs (12.5 µM) and analyzed […]

Row | Compound | effect on endogenous MYC protein levels (western blot) (endogenous MYC protein) | HOT-induced expression of MYC target genes ODC1, RSG16 and CR2 [1] | effect on FRA1:JUN interaction (isPLA) (FRA1:JUN) | shift of MAX thermophoresis relative to DMSO (MYC:MAX MST) (MYCbHLHZip:MAXbHLHZip) | Kd (MYCbHLHZip:MAXbHLHZip; titration with 1 µM MYCbHLHZip and labeled MAXbHLHZip, read-out: Kd of thermophoresis shift, MYC:MAX MST) | effect on MAX:MXD1(MAD1) interaction (GLuc) (MAX:MXD1(MAD1)) | effect on endogenous MYC protein levels (western blot) (endogenous MYC protein; listed as MYCM-14)
1 | CCOc1ccc2nc3cc(/N=N/c4ccc(N)nc4N)ccc3c(N)c2c1 [MYCMI-6] | did not affect MYC protein levels to any greater extent; also recorded: do not | significantly reduced | did not significantly affect | shifted MAX thermophoresis | 4.3 µM | did not significantly affect | 
2 | CCCCN(c1ccccc1)c1ncnc2c1cnn2C [MYCMI-11] | did not affect MYC protein levels to any greater extent; also recorded: do not | reduced expression of the genes to a lesser extent | did not significantly affect | less effective |  | did not significantly affect | 
3 | O=C(O)/C=C/C(=O)Nc1cccc2c1-c1ccccc1C2=O [MYCMI-14] | did not affect MYC protein levels to any greater extent | reduced expression of the genes to a lesser extent | did not significantly affect | less effective |  | did not significantly affect | do not
